What was measured:
[1] = tested on: newly diagnosed glioblastoma; assay: AvaGlio Phase III trial: bevacizumab plus temozolomide and radiotherapy versus placebo plus temozolomide and radiotherapy; format: in vivo, human; details: for OS hazard ratio (HR), multivariate Cox proportional hazard model: adjusted for prognostic covariates; for OS benefit, multivariate analysis (result in words): known prognostic covariates considered
Description: The AvaGlio trial evaluated the efficacy and safety of bevacizumab in combination temozolomide and radiotherapy for newly diagnosed glioblastoma. This study was designed as a prospective, randomized, double blind, placebo controlled Phase III evaluation of bevacizumab plus chemotherapy versus chemotherapy alone. To be eligible, patients must have had newly diagnosed glioblastoma with a tissue diagnosis that has been established following either a surgical resection or biopsy. By adding bevacizumab to chemotherapy and radiotherapy, the AvaGlio trial aimed to improve overall survival (OS) and progression-free survival (PFS) for this group of patients who had limited therapeutic options and faced a particularly poor prognosis. The primary objective was to compare OS and PFS of patients randomized to temozolomide (TMZ) and radiotherapy only or to temozolomide and radiotherapy plus bevacizumab.
This trial consisted of three phases (Concurrent, Maintenance, and Monotherapy) and two (2) treatment arms: TMZ and radiotherapy (RT) (Arm 1), and TMZ and RT plus bevacizumab (Arm 2). Patients were randomly assigned (1:1) to either arm.
Arm 1 (chemotherapy and radiotherapy alone): Eligible patients received 2 Gy RT 5 days a week for 6 weeks and 75 mg/m^2 TMZ orally daily for 6 weeks from the first day to the last day of RT in combination with 10 mg/kg placebo i.v. every 2 weeks. After a 4-week treatment break, eligible patients received 6 cycles of 150-200 mg/m^2 TMZ on days 1-5 of an every-4-week schedule in combination with 10 mg/kg placebo i.v. every 2 weeks. TMZ was administered orally starting with a 150 mg/m^2 dose that could be escalated. Placebo monotherapy (15 mg/kg every 3 weeks) was then continued until disease progression. Upon disease progression, patients were treated at the investigator's discretion.
Arm 2 (chemotherapy and radiotherapy plus bevacizumab): Eligible patients received 2 Gy RT 5 days a week for 6 weeks and 75 mg/m^2 TMZ orally daily for 6 weeks from the first day to the last day of RT in combination with 10 mg/kg bevacizumab i.v. every 2 weeks. After a 4-week treatment break, eligible patients received 6 cycles of 150-200 mg/m^2 TMZ on days 1-5 of an every-4-week schedule in combination with 10 mg/kg bevaciumab i.v. every 2 weeks. TMZ was administered orally starting with a 150 mg/m^2 dose that could be escalated. Bevaciazumab monotherapy (15 mg/kg every 3 weeks) was then continued until disease progression. Upon disease progression, patients were treated at the investigator's discretion.
The initial bevacizumab infusion was over 90 minutes, with subsequent infusions over 60 minutes and then 30 minutes, as tolerated. Bevacizumab was administered on the last day of RT and TMZ treatment, i.e., the day before the start of the TMZ treatment break.
Analyses of PFS were based on tumor assessments MacDonald Response Criteria (modified WHO criteria) using MRI of the brain and a neurological evalution as described in Macdonald et al. (J. Clin. Oncol. 8: 1277-80, 1990). Tumor assessments were performed at baseline, at the end of the 4-week treatment break, then every 8 weeks.
Next, we classified the 349 samples from the AvaGlio trial for which biomarkers could be evaluated into the gene expression subtypes defined by Phillips (Cancer Cell. 9(3): 157-173, 2006).
Samples were analyzed with the same Nanostring probe set used to derive the subtype-specific centroids and expression scores for the same genes were obtained using the same technology and probe sequences. Of the 349 samples, 10 samples from patients carrying mutation(s) in the isocitrate dehydrogenase 1 (IDH1) gene, known to be associated with good prognoses, were excluded from this analysis. Of the remaining 339 IDH1 wild-type samples, raw Nanostring counts were log 2 transformed and the mean expression and standard deviation across all samples was adjusted to the same reference values applied to the training set of Example 2 above. […]

[2] = tested on: newly diagnosed glioblastoma; assay: as above; format: in vivo, human; details: known prognostic covariates considered

bevacizumab: recombinant humanized anti-VEGF monoclonal antibody generated according to Presta et al.; VL SEQ ID NO: 1, VH SEQ ID NO: 2
OS hazard ratio (HR), multivariate Cox proportional hazard model ([1]; PN subtype (Phillips), IDH1 wild-type, 95% CI 0.24-0.72, p=0.002): 0.42 | extension of median OS in the treatment arm relative to the placebo arm ([1]; PN subtype (Phillips), n=99): about 4.9 months | PFS hazard ratio (HR), treatment arm relative to placebo arm ([1]; PN subtype (Phillips), n=99, 95% CI 0.37-0.9, p=0.015): 0.58 | OS hazard ratio (HR), treatment arm relative to placebo arm ([1]; PN subtype (Phillips), n=99, 95% CI 0.4-0.99, p=0.043): 0.63 | median OS in the treatment arm ([1]; PN subtype (Phillips), placebo arm 12.2 months): 17.1 months | OS benefit, multivariate analysis (result in words) ([1]; Phillips-classified PN subtype): statistically significant benefit in extending OS | OS benefit, multivariate analysis (result in words) ([1]; Phillips-classified non-PN subtype): do not show significant OS benefit | extension of median PFS in the treatment arm relative to the placebo arm ([1]; Phillips-classified proneural (PN) subtype, IDH1 wild-type, n=99): about 4.3 months | increase in median progression-free survival (PFS) compared to the placebo arm ([1]; all patients, treatment arm (RT/TMZ/bevacizumab) vs placebo arm): about 4.4 months | median overall survival (OS), difference between arms ([1]; all patients, treatment arm vs placebo arm): not significantly different between arms | OS hazard ratio (HR), multivariate Cox proportional hazard model ([1]; non-PN subtype (Phillips), 95% CI 0.76-1.39, p=0.863): 1.03 | PFS and OS improvement (result in words) ([1]; patients having glioblastoma of the PN type): significant PFS and OS improvement | OS benefit, multivariate analysis (result in words) ([2]; TCGA-classified PN subtype): significant OS benefit | OS benefit, multivariate analysis (result in words) ([2]; TCGA-classified non-PN subtype): do not show significant OS benefit
